Active and inactive are the calls of the source. The calls are words filed in the database; no cut-off is given here.
Test system: not listed separately
Assay: Inhibition of Cu2+-induced amyloid beta (1 to 40) fibril aggregation at 100 uM preincubated for 5 mins followed by amyloid beta (1 to 40) addition measured after 18 days by turbidity assay
Settings: not given
In the case of `Oc1ccc(/N=C/c2c(O)ccc3ccccc23)c(O)c1`, the inhibition is reported as “Active”.
For `Oc1ccccc1/N=C/c1c(O)ccc2ccccc12`, the inhibition was “Active”.

Test system: not listed separately
Assay: Inhibition of preformed Cu2+-induced amyloid beta (1 to 40) fibril aggregation assessed as remaining fibril aggregates at 100 uM after 4 days at pH 6.60 by thioflavin-T fluorescence assay
Settings: not given
For `Oc1ccc(/N=C/c2c(O)ccc3ccccc23)c(O)c1`, the Activity was 46%.
In the case of `Oc1ccccc1/N=C/c1c(O)ccc2ccccc12`, the Activity is reported as 66.4%.

Biological target: Amyloid-beta precursor protein (Homo sapiens) (UniProt P05067)
Sequence (P05067 whole entry): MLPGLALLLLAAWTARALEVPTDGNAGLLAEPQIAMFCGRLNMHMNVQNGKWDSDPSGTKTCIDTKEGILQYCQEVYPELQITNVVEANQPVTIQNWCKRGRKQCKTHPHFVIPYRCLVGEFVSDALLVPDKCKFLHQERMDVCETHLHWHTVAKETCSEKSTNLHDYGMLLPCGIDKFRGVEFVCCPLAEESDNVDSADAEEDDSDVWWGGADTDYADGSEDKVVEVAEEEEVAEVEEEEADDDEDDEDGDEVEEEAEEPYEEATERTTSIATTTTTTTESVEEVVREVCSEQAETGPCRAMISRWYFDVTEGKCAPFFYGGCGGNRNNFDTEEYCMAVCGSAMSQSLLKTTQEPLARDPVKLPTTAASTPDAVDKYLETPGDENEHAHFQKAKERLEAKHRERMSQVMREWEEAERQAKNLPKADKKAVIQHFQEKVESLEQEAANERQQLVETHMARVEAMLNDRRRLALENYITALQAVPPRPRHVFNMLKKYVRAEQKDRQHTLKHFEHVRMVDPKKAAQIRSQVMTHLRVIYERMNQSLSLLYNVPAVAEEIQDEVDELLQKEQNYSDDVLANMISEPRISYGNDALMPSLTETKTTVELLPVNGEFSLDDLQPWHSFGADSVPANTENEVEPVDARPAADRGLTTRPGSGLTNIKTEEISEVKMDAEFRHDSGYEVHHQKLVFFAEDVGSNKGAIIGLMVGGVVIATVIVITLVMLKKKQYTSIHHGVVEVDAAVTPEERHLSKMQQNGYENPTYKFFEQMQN
Assay: Induction of self-induced amyloid beta (1 to 40) (unknown origin) fibril aggregation at 100 uM after 3 days by turbidity assay
Settings: not given
In the case of `Oc1ccc(/N=C/c2c(O)ccc3ccccc23)c(O)c1`, the Activity is reported as “Active”.
With `Oc1ccccc1/N=C/c1c(O)ccc2ccccc12` the Activity was “Active”.

Test system: not listed separately
Assay: Inhibition of preformed Cu2+-induced amyloid beta (1 to 40) fibril aggregation assessed as remaining fibril aggregates at 100 uM after 12 days at pH 6.60 by thioflavin-T fluorescence assay
Settings: not given
`Oc1ccc(/N=C/c2c(O)ccc3ccccc23)c(O)c1` showed an Activity of 47.3%.
For `Oc1ccccc1/N=C/c1c(O)ccc2ccccc12`, the Activity was 42.8%.

Test system: not listed separately
Assay: Inhibition of Cu2+-induced amyloid beta (1 to 40) fibril aggregation assessed as remaining fibril aggregates at 100 uM preincubated for 5 mins followed by amyloid beta (1 to 40) addition measured after 3 days at pH 6.60 by thioflavin-T fluorescence assay
Settings: not given
`Oc1ccc(/N=C/c2c(O)ccc3ccccc23)c(O)c1` showed an Activity of 7.85%.
`Oc1ccccc1/N=C/c1c(O)ccc2ccccc12` gave an Activity of 41.5%.

Test system: not listed separately
Assay: Ratio of resveratrol IC50 to compound IC50 for DPPH free radical scavenging activity
Settings: not given
For `Oc1ccc(/N=C/c2c(O)ccc3ccccc23)c(O)c1`, the Ratio IC50 was 1.3.
For `Oc1ccccc1/N=C/c1c(O)ccc2ccccc12`, the Ratio IC50 was 0.5.

Test system: not listed separately
Assay: Binding affinity to Zn2+ using ZnCl2 at 20 uM after 5 mins by spectrophotometry
Settings: not given
For `Oc1ccc(/N=C/c2c(O)ccc3ccccc23)c(O)c1`, the Activity was “inactive”.
With `Oc1ccccc1/N=C/c1c(O)ccc2ccccc12` the Activity was “inactive”.

Test system: not listed separately
Assay: Binding affinity to Fe2+ using FeCl2 at 20 uM after 5 mins by spectrophotometry
Settings: not given
In the case of `Oc1ccc(/N=C/c2c(O)ccc3ccccc23)c(O)c1`, the Activity is reported as “inactive”.
In the case of `Oc1ccccc1/N=C/c1c(O)ccc2ccccc12`, the Activity is reported as “inactive”.

Test system: not listed separately
Assay: Binding affinity to Cu2+ using CuCl2 at 10 uM after 5 mins by spectrophotometric titration assay
Settings: not given
With `Oc1ccc(/N=C/c2c(O)ccc3ccccc23)c(O)c1` the Activity was “Active”.
For `Oc1ccccc1/N=C/c1c(O)ccc2ccccc12`, the Activity was “Active”.

Test system: not listed separately
Assay: Inhibition of Cu2+-amyloid beta (1 to 40) catalyzed generation of hydroxyl radical assessed as rate of radical formation per min at 2 equiv preincubated for 1 hr followed by CCA addition measured over 60 mins by CCA based fluorescence assay (reference value: 13 +/- 0.2 a.u.)
Settings: not given
`Oc1ccc(/N=C/c2c(O)ccc3ccccc23)c(O)c1` gave an Activity of 0.03 a.u.
`Oc1ccccc1/N=C/c1c(O)ccc2ccccc12` gave an Activity of 0 a.u.

Test system: not listed separately
Assay: Ratio of resveratrol IC50 to compound IC50 for AAPH radical scavenging activity
Settings: not given
Work on `Oc1ccc(/N=C/c2c(O)ccc3ccccc23)c(O)c1` yielded a Ratio IC50 of 0.5.
With `Oc1ccccc1/N=C/c1c(O)ccc2ccccc12` the Ratio IC50 was 0.1.

Test system: not listed separately
Assay: Antioxidant activity assessed as DPPH free radical scavenging activity after 30 mins by spectrophotometry
Type: physicochemical
Settings: not given
Work on `Oc1ccc(/N=C/c2c(O)ccc3ccccc23)c(O)c1` yielded an IC50 of 13.5 µM.
`Oc1ccccc1/N=C/c1c(O)ccc2ccccc12` gave an IC50 of 38.5 µM.

Biological target: Amyloid-beta precursor protein (Homo sapiens) (UniProt P05067)
Assay: Inhibition of preformed self-induced amyloid beta (1 to 40) (unknown origin) fibril aggregation at 100 uM after 12 days by turbidity assay relative to control
Settings: not given
In the case of `Oc1ccc(/N=C/c2c(O)ccc3ccccc23)c(O)c1`, the inhibition is reported as “Active”.
`Oc1ccccc1/N=C/c1c(O)ccc2ccccc12` gave an inhibition of 25%.

Test system: not listed separately
Assay: Inhibition of Cu2+-induced amyloid beta (1 to 40) aggregation at 100 uM preincubated for 5 mins followed by amyloid beta (1 to 40) addition measured after 18 days at pH 6.60 by thioflavin-T fluorescence assay
Settings: not given
For `Oc1ccc(/N=C/c2c(O)ccc3ccccc23)c(O)c1`, the inhibition was “Active”.
With `Oc1ccccc1/N=C/c1c(O)ccc2ccccc12` the inhibition was “Active”.

Test system: not listed separately
Assay: Binding affinity to Ca2+ using CaCl2 at 20 uM after 5 mins by spectrophotometry
Settings: not given
With `Oc1ccc(/N=C/c2c(O)ccc3ccccc23)c(O)c1` the Activity was “inactive”.
For `Oc1ccccc1/N=C/c1c(O)ccc2ccccc12`, the Activity was “inactive”.

Biological target: Amyloid-beta precursor protein (Homo sapiens) (UniProt P05067)
Assay: Induction of preformed self-induced amyloid beta (1 to 40) (unknown origin) fibril aggregation at 100 uM after 4 days by turbidity assay
Settings: not given
In the case of `Oc1ccc(/N=C/c2c(O)ccc3ccccc23)c(O)c1`, the Activity is reported as “Active”.
With `Oc1ccccc1/N=C/c1c(O)ccc2ccccc12` the Activity was “Active”.

Test system: not listed separately
Assay: Induction of preformed Cu2+-induced amyloid beta (1 to 40) fibril aggregation at 100 uM after 4 to 12 days by turbidity assay relative to control
Settings: not given
With `Oc1ccc(/N=C/c2c(O)ccc3ccccc23)c(O)c1` the Activity was “Active”.

Biological target: Amyloid-beta precursor protein (Homo sapiens) (UniProt P05067)
Assay: Inhibition of self-induced amyloid beta (1 to 40) (unknown origin) fibril aggregation assessed as remaining fibril aggregates at 100 uM after 3 days at pH 6.60 by thioflavin-T fluorescence assay
Settings: not given
With `Oc1ccc(/N=C/c2c(O)ccc3ccccc23)c(O)c1` the Activity was 6.51%.
With `Oc1ccccc1/N=C/c1c(O)ccc2ccccc12` the Activity was 22.6%.

Biological target: Amyloid-beta precursor protein (Homo sapiens) (UniProt P05067)
Assay: Inhibition of preformed self-induced amyloid beta (1 to 40) (unknown origin) fibril aggregation assessed as remaining fibril aggregates at 100 uM after 4 days at pH 6.60 by thioflavin-T fluorescence assay
Settings: not given
`Oc1ccc(/N=C/c2c(O)ccc3ccccc23)c(O)c1` showed an Activity of 14.4%.
With `Oc1ccccc1/N=C/c1c(O)ccc2ccccc12` the Activity was 36.2%.

Test system: not listed separately
Assay: Inhibition of preformed Cu2+-induced amyloid beta (1 to 40) fibril aggregation at 100 uM after 12 days by turbidity assay relative to total turbidity of amyloid beta (1 to 40) aggregates
Settings: not given
Compound `Oc1ccccc1/N=C/c1c(O)ccc2ccccc12` has an inhibition of less than 22%.

Biological target: Amyloid-beta precursor protein (Homo sapiens) (UniProt P05067)
Assay: Inhibition of self-induced amyloid beta (1 to 40) (unknown origin) fibril aggregation assessed as remaining fibril aggregates at 100 uM after 7 days at pH 6.60 by thioflavin-T fluorescence assay
Settings: not given
In the case of `Oc1ccc(/N=C/c2c(O)ccc3ccccc23)c(O)c1`, the Activity is reported as 6.21%.
`Oc1ccccc1/N=C/c1c(O)ccc2ccccc12` showed an Activity of 13.9%.

Test system: not listed separately
Assay: Toxicity in Tetrahymena thermophila assessed as reduction in cell viability after 48 hrs by MTT assay
Type: organism-based
Settings: Tetrahymena thermophila cells, read-out: LD50
`Oc1ccc(/N=C/c2c(O)ccc3ccccc23)c(O)c1` gave an LC50 at 48 h of 265 µM.
Compound `Oc1ccccc1/N=C/c1c(O)ccc2ccccc12` has an LC50 at 48 h of 158 µM.

Test system: not listed separately
Assay: Inhibition of Cu2+-amyloid beta (1 to 40) catalyzed generation of hydroxyl radical assessed as 7-hrdroxy-CCA formation at 2 equiv preincubated for 1 hr followed by CCA addition measured over 60 mins by fluorescence assay
Settings: not given
Compound `Oc1ccc(/N=C/c2c(O)ccc3ccccc23)c(O)c1` has an inhibition of 98.5%.
In the case of `Oc1ccccc1/N=C/c1c(O)ccc2ccccc12`, the inhibition is reported as 100%.

Biological target: Amyloid-beta precursor protein (Homo sapiens) (UniProt P05067)
Assay: Inhibition of preformed self-induced amyloid beta (1 to 40) (unknown origin) fibril aggregation assessed as remaining fibril aggregates at 100 uM after 12 days at pH 6.60 by thioflavin-T fluorescence assay
Settings: not given
For `Oc1ccc(/N=C/c2c(O)ccc3ccccc23)c(O)c1`, the Activity was 11%.
In the case of `Oc1ccccc1/N=C/c1c(O)ccc2ccccc12`, the Activity is reported as 26.6%.

Test system: not listed separately
Assay: Inhibition of preformed Cu2+-induced amyloid beta (1 to 40) fibril aggregation at 100 uM after 12 days by turbidity assay relative to control
Settings: not given
`Oc1ccccc1/N=C/c1c(O)ccc2ccccc12` gave an inhibition of less than 57%.

Biological target: Amyloid-beta precursor protein (Homo sapiens) (UniProt P05067)
Assay: Inhibition of self-induced amyloid beta (1 to 40) (unknown origin) fibril aggregation at 100 uM after 7 to 18 days by turbidity assay
Settings: not given
In the case of `Oc1ccc(/N=C/c2c(O)ccc3ccccc23)c(O)c1`, the inhibition is reported as “Active”.
For `Oc1ccccc1/N=C/c1c(O)ccc2ccccc12`, the inhibition was “Active”.

Test system: not listed separately
Assay: Binding affinity to Mg2+ using MgSO4 at 20 uM after 5 mins by spectrophotometry
Settings: not given
For `Oc1ccc(/N=C/c2c(O)ccc3ccccc23)c(O)c1`, the Activity was “inactive”.
In the case of `Oc1ccccc1/N=C/c1c(O)ccc2ccccc12`, the Activity is reported as “inactive”.

Test system: not listed separately
Assay: Inhibition of Cu2+-induced amyloid beta (1 to 40) fibril aggregation assessed as remaining fibril aggregates at 100 uM preincubated for 5 mins followed by amyloid beta (1 to 40) addition measured after 7 days at pH 6.60 by thioflavin-T fluorescence assay
Settings: not given
With `Oc1ccc(/N=C/c2c(O)ccc3ccccc23)c(O)c1` the Activity was 10.9%.
`Oc1ccccc1/N=C/c1c(O)ccc2ccccc12` gave an Activity of 33.7%.

Test system: not listed separately
Assay: Induction of Cu2+-induced amyloid beta (1 to 40) fibril aggregation at 100 uM preincubated for 5 mins followed by amyloid beta (1 to 40) addition measured after 3 to 7 days by turbidity assay
Settings: not given
In the case of `Oc1ccc(/N=C/c2c(O)ccc3ccccc23)c(O)c1`, the Activity is reported as 47%.

Test system: not listed separately
Assay: Binding affinity to Cu2+ using CuCl2 after 5 mins by spectrophotometry
Settings: not given
`Oc1ccc(/N=C/c2c(O)ccc3ccccc23)c(O)c1` showed a logKa of 14.3.
With `Oc1ccccc1/N=C/c1c(O)ccc2ccccc12` the logKa was 14.

Test system: not listed separately
Assay: Antioxidant activity assessed as AAPH radical scavenging activity preincubated for 30 mins followed by AAPH addition measured after 60 mins by ORAC assay
Type: physicochemical
Settings: not given
Work on `Oc1ccc(/N=C/c2c(O)ccc3ccccc23)c(O)c1` yielded an IC50 of 3.15 µM.
`Oc1ccccc1/N=C/c1c(O)ccc2ccccc12` gave an IC50 of 11.5 µM.

Test system: not listed separately
Assay: Binding affinity to Mn2+ using MnCl2 at 20 uM after 5 mins by spectrophotometry
Settings: not given
With `Oc1ccc(/N=C/c2c(O)ccc3ccccc23)c(O)c1` the Activity was “inactive”.
In the case of `Oc1ccccc1/N=C/c1c(O)ccc2ccccc12`, the Activity is reported as “inactive”.

Biological target: Amyloid-beta precursor protein (Homo sapiens) (UniProt P05067)
Assay: Binding affinity to amyloid beta (1 to 40) (unknown origin) by tyrosine fluorimetric titration assay
Settings: not given
`Oc1ccc(/N=C/c2c(O)ccc3ccccc23)c(O)c1` showed a Ka of 2.46 ×10⁵ /M.
`Oc1ccccc1/N=C/c1c(O)ccc2ccccc12` showed a Ka of 1.91 ×10⁵ /M.
